Experimental findings from ChEMBL document CHEMBL1150590, “Cytotoxic and antifungal triterpene glycosides from the Patagonian sea cucumber Hemoiedema spectabilis” (J Nat Prod, 2002) are described below.

In data set [1] the test system is Cladosporium cucumerinum. The data set is described as follows: Antifungal activity against Cladosporium cucumerinum at 1.5 to 50 ug/spot after 2 to 3 days by bioautographic assay. The class given is functional.
The test system of data set [2] is Cladosporium cucumerinum. Description: Growth inhibition of Cladosporium cucumerinum after 2 to 3 days by bioautographic assay. Type of data set: functional, organism-based.
For a further data set, the system named is Artemia salina. The data set is described as follows: Toxicity against Artemia salina. The class given is organism-based. Conditions: in vivo.

As to `CO[C@@H]1[C@@H](O)[C@H](O[C@@H]2[C@@H](O)[C@H](O[C@H]3[C@H](O)[C@@H](O)[C@H](O[C@H]4[C@H](O[C@H]5CC[C@]6(C)[C@@H]7C[C@H](O)[C@]89C(=O)O[C@@](C)(CCCC(C)C)[C@@]8(O)CC[C@@]9(C)C7=CC[C@H]6C5(C)C)OC[C@@H](OS(=O)(=O)[O-])[C@@H]4O)O[C@@H]3C)O[C@H](COS(=O)(=O)[O-])[C@H]2O)O[C@H](CO)[C@H]1O.[Na+].[Na+]` [PATAGONICOSIDE A], in the data set with Cladosporium cucumerinum [1], the “inhibition zone (IZ)” value is 8 mm.
As for `C=C(C)CCC[C@]1(C)OC(=O)[C@]23CC=C4[C@@H](CC[C@H]5C(C)(C)[C@@H](O[C@@H]6OC[C@@H](O)[C@H](O)[C@H]6O[C@@H]6O[C@H](C)[C@@H](O[C@@H]7O[C@H](CO)[C@@H](O)[C@H](O[C@@H]8O[C@H](CO)[C@@H](O)[C@H](OC)[C@H]8O)[C@H]7O)[C@H](O)[C@H]6O)CC[C@]45C)[C@]2(C)CC(=O)[C@@H]31` [DESULFATED HEMOIEDEMOSIDE A], in the data set on Cladosporium cucumerinum [2], the Activity entry was “Dose-dependent effect”. The LC50 – broadly, the concentration lethal to half of the exposed cells or organisms – in the data set with Artemia salina came to 424.5 ppm.
With `C=C(C)CCC[C@]1(C)OC(=O)[C@]23CC=C4[C@@H](CC[C@H]5C(C)(C)[C@@H](O[C@@H]6OC[C@@H](OS(=O)(=O)[O-])[C@H](O)[C@H]6O[C@@H]6O[C@H](C)[C@@H](O[C@@H]7O[C@H](COS(=O)(=O)[O-])[C@@H](O)[C@H](O[C@@H]8O[C@H](CO)[C@@H](O)[C@H](OC)[C@H]8O)[C@H]7O)[C@H](O)[C@H]6O)CC[C@]45C)[C@]2(C)CC(=O)[C@@H]31.[Na+].[Na+]` [HEMOIEDEMOSIDE A], the Activity entry with Cladosporium cucumerinum [2] was “Dose-dependent effect”. Moreover, the “inhibition zone (IZ)” value in the data set with Cladosporium cucumerinum [1] is listed as 8 mm. The compound also showed a median lethal concentration (LC50) in the data set with Artemia salina of 18.7 ppm.
